PubChem BioAssay (NCI)
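These data come from cells grown in 96-well plates and exposed to compound for 48 hours at five concentrations. Here, GI50 denotes the concentration required for 50% inhibition of growth. Definition used: TGI = concentration required for complete inhibition of growth.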

How the values were obtained:
Assay in all cases: growth of human tumour cells (NCI), 48 h
A498 renal = tested on: A498 renal
A549 NSCLC = tested on: A549 NSCLC
ACHN renal = tested on: ACHN renal
HT29 colon = tested on: HT29 colon
MALME-3M melanoma = tested on: MALME-3M melanoma
MOLT-4 leukemia = tested on: MOLT-4 leukemia
NCI/ADR-RES ovarian = tested on: NCI/ADR-RES ovarian
RXF 393 renal = tested on: RXF 393 renal
SK-MEL-28 melanoma = tested on: SK-MEL-28 melanoma
UACC-62 melanoma = tested on: UACC-62 melanoma

With Cc1cc(I)cc(CN(C)CCCN2CCC(C)CC2)c1O the GI50 (A498 renal) was 7.53 µM, the TGI (A498 renal) was 21.2 µM and the GI50 (A549 NSCLC) was 15.4 µM. For the same compound, the TGI (A549 NSCLC) was 29.6 µM, the GI50 (ACHN renal) was 16.3 µM and the TGI (ACHN renal) was 30.7 µM. For the same compound, the GI50 (HT29 colon) was 9.02 µM, the TGI (HT29 colon) was 21.3 µM and the GI50 (MALME-3M melanoma) was 16.9 µM. The TGI (MALME-3M melanoma) was 33 µM, the GI50 (MOLT-4 leukemia) was 10 µM and the TGI (MOLT-4 leukemia) was 26.4 µM. It also gave a GI50 (NCI/ADR-RES ovarian) of 14.3 µM, a TGI (NCI/ADR-RES ovarian) of 31 µM and a GI50 (RXF 393 renal) of 10.5 µM. It also gave a TGI (RXF 393 renal) of 23.5 µM, a GI50 (SK-MEL-28 melanoma) of 12.1 µM and a TGI (SK-MEL-28 melanoma) of 24.5 µM. It also gave a GI50 (UACC-62 melanoma) of 14.2 µM and a TGI (UACC-62 melanoma) of 30.4 µM.
Compound CC(C)[C@@H](C(=O)O[C@@H]1/C=C/C(=O)O[C@@H](C)CCC/C=C/[C@@H]2C[C@H](O)C[C@H]21)N(C)C has a GI50 (A498 renal) of 2.54 µM, a TGI (A498 renal) of 7.97 µM and a GI50 (A549 NSCLC) of 24 µM. The TGI (A549 NSCLC) was greater than 100 µM, the GI50 (ACHN renal) was 38.4 µM and the TGI (ACHN renal) was greater than 100 µM. For the same compound, the GI50 (HT29 colon) was 5.16 µM, the TGI (HT29 colon) was 27.3 µM and the GI50 (MALME-3M melanoma) was 3.89 µM. It also gave a TGI (MALME-3M melanoma) of 22 µM, a GI50 (MOLT-4 leukemia) of 15.9 µM and a TGI (MOLT-4 leukemia) of 42.8 µM. For the same compound, the GI50 (NCI/ADR-RES ovarian) was 24.6 µM, the TGI (NCI/ADR-RES ovarian) was greater than 93.6 µM and the GI50 (RXF 393 renal) was 7.33 µM. The TGI (RXF 393 renal) was 44.1 µM, the GI50 (SK-MEL-28 melanoma) was 6.03 µM and the TGI (SK-MEL-28 melanoma) was 23.5 µM. The GI50 (UACC-62 melanoma) was 21.7 µM and the TGI (UACC-62 melanoma) was greater than 72.1 µM.
With COC(=O)C1=C(C)NC(=S)NC1c1ccc(N(CCCl)CCCl)cc1Cl (stereo unspecified) the GI50 (A498 renal) was 46.9 µM, the TGI (A498 renal) was greater than 100 µM and the TGI (A549 NSCLC) was greater than 58.7 µM. It also gave a TGI (ACHN renal) greater than 75.9 µM, a TGI (HT29 colon) greater than 82.8 µM and a TGI (MALME-3M melanoma) of 41.7 µM. The TGI (MOLT-4 leukemia) was 40 µM, the TGI (NCI/ADR-RES ovarian) was greater than 100 µM and the TGI (RXF 393 renal) was greater than 81.2 µM. It also gave a TGI (SK-MEL-28 melanoma) greater than 100 µM and a TGI (UACC-62 melanoma) of 16.1 µM.
CCC(=O)NC1=C(Cl)C(=O)C(NC(=O)CC)=C(Cl)C1=O gave a GI50 (A498 renal) of 38.2 µM, a TGI (A498 renal) greater than 72.6 µM and a GI50 (A549 NSCLC) of 29.4 µM. For the same compound, the TGI (A549 NSCLC) was greater than 61.8 µM, the GI50 (ACHN renal) was 5.6 µM and the TGI (ACHN renal) was 10.9 µM. For the same compound, the GI50 (HT29 colon) was 25.2 µM, the TGI (HT29 colon) was 53.3 µM and the GI50 (MALME-3M melanoma) was 5.17 µM. The TGI (MALME-3M melanoma) was 10.1 µM, the GI50 (MOLT-4 leukemia) was 9.55 µM and the TGI (MOLT-4 leukemia) was greater than 21.9 µM. It also gave a GI50 (NCI/ADR-RES ovarian) of 24 µM, a TGI (NCI/ADR-RES ovarian) of 58.6 µM and a GI50 (RXF 393 renal) of 6.64 µM. For the same compound, the TGI (RXF 393 renal) was 12.8 µM, the GI50 (SK-MEL-28 melanoma) was 10.5 µM and the TGI (SK-MEL-28 melanoma) was 23.2 µM. For the same compound, the GI50 (UACC-62 melanoma) was 29.7 µM and the TGI (UACC-62 melanoma) was greater than 57.3 µM.
In the case of CC1Cc2c(Cl)ncnc2N(C)c2ccccc21 (stereo unspecified), the GI50 (A498 renal) is reported as 1.98 µM, the TGI (A498 renal) is reported as 5.41 µM and the GI50 (A549 NSCLC) is reported as 4.85 µM. It also gave a TGI (A549 NSCLC) greater than 100 µM, a GI50 (ACHN renal) of 3.79 µM and a TGI (ACHN renal) greater than 100 µM. For the same compound, the GI50 (HT29 colon) was 2.47 µM, the TGI (HT29 colon) was 7.27 µM and the GI50 (MALME-3M melanoma) was 2.03 µM. For the same compound, the TGI (MALME-3M melanoma) was 7.5 µM, the GI50 (MOLT-4 leukemia) was 3.46 µM and the TGI (MOLT-4 leukemia) was greater than 100 µM. For the same compound, the GI50 (NCI/ADR-RES ovarian) was 2.69 µM, the TGI (NCI/ADR-RES ovarian) was 12.4 µM and the GI50 (RXF 393 renal) was 2.57 µM. For the same compound, the TGI (RXF 393 renal) was 6.05 µM, the GI50 (SK-MEL-28 melanoma) was 1.82 µM and the TGI (SK-MEL-28 melanoma) was 26.5 µM. For the same compound, the GI50 (UACC-62 melanoma) was 3.32 µM and the TGI (UACC-62 melanoma) was 12.8 µM.
In the case of O=C(Nc1cccc([N+](=O)[O-])c1)c1cccc(C(=O)Nc2cccc([N+](=O)[O-])c2)c1, the GI50 (A498 renal) is reported as 20.2 µM, the TGI (A498 renal) is reported as 79.5 µM and the GI50 (A549 NSCLC) is reported as greater than 100 µM. The TGI (A549 NSCLC) was greater than 100 µM, the GI50 (ACHN renal) was greater than 100 µM and the TGI (ACHN renal) was greater than 100 µM. The GI50 (HT29 colon) was greater than 100 µM, the TGI (HT29 colon) was greater than 100 µM and the GI50 (MALME-3M melanoma) was greater than 100 µM. For the same compound, the TGI (MALME-3M melanoma) was greater than 100 µM, the GI50 (MOLT-4 leukemia) was greater than 100 µM and the TGI (MOLT-4 leukemia) was greater than 100 µM. It also gave a GI50 (NCI/ADR-RES ovarian) greater than 100 µM, a TGI (NCI/ADR-RES ovarian) greater than 100 µM and a GI50 (RXF 393 renal) of 14.7 µM. For the same compound, the TGI (RXF 393 renal) was 38.8 µM, the GI50 (SK-MEL-28 melanoma) was greater than 100 µM and the TGI (SK-MEL-28 melanoma) was greater than 100 µM. It also gave a GI50 (UACC-62 melanoma) greater than 100 µM and a TGI (UACC-62 melanoma) greater than 100 µM.
O=C(Nc1nc2c(C(F)(F)F)cccc2s1)c1cc(Cl)ccc1O gave a GI50 (A498 renal) of 0.181 µM, a TGI (A498 renal) of 0.519 µM and a GI50 (A549 NSCLC) of 0.316 µM. It also gave a TGI (A549 NSCLC) greater than 100 µM, a GI50 (ACHN renal) of 0.295 µM and a TGI (ACHN renal) of 0.961 µM. The GI50 (HT29 colon) was 0.44 µM, the TGI (HT29 colon) was 13 µM and the GI50 (MALME-3M melanoma) was 0.231 µM. The TGI (MALME-3M melanoma) was 0.641 µM, the GI50 (MOLT-4 leukemia) was 0.318 µM and the TGI (MOLT-4 leukemia) was 1.21 µM. It also gave a GI50 (NCI/ADR-RES ovarian) of 0.311 µM, a TGI (NCI/ADR-RES ovarian) of 21.6 µM and a GI50 (RXF 393 renal) of 0.257 µM. It also gave a TGI (RXF 393 renal) of 0.772 µM, a GI50 (SK-MEL-28 melanoma) of 0.331 µM and a TGI (SK-MEL-28 melanoma) of 8.18 µM. It also gave a GI50 (UACC-62 melanoma) of 0.252 µM and a TGI (UACC-62 melanoma) of 0.957 µM.
For C=CCc1c(O)c(C(=O)/C=C/c2ccc(Cl)cc2)c(OC)c2ccoc12, the GI50 (A498 renal) was 2.77 µM, the TGI (A498 renal) was 13 µM and the GI50 (A549 NSCLC) was 4.7 µM. It also gave a TGI (A549 NSCLC) of 18.2 µM, a GI50 (ACHN renal) of 2.31 µM and a TGI (ACHN renal) of 6.17 µM. For the same compound, the GI50 (HT29 colon) was 1.89 µM, the TGI (HT29 colon) was 3.98 µM and the GI50 (MALME-3M melanoma) was 2.74 µM. It also gave a TGI (MALME-3M melanoma) of 8.51 µM, a GI50 (MOLT-4 leukemia) of 2.61 µM and a TGI (MOLT-4 leukemia) greater than 100 µM. The GI50 (NCI/ADR-RES ovarian) was 2.23 µM, the TGI (NCI/ADR-RES ovarian) was 5.86 µM and the GI50 (RXF 393 renal) was 1.72 µM. The TGI (RXF 393 renal) was 3.6 µM, the GI50 (SK-MEL-28 melanoma) was 2.32 µM and the TGI (SK-MEL-28 melanoma) was 5.53 µM. The GI50 (UACC-62 melanoma) was 2.88 µM and the TGI (UACC-62 melanoma) was 10.1 µM.
Cc1ccc2ccccc2c1CSc1nc(N)nc2c1ncn2CC(C)C gave a TGI (A498 renal) of 99.6 µM, a TGI (A549 NSCLC) greater than 100 µM and a TGI (ACHN renal) greater than 100 µM. The TGI (HT29 colon) was greater than 100 µM, the TGI (MALME-3M melanoma) was greater than 62.2 µM and the TGI (MOLT-4 leukemia) was 29.7 µM. For the same compound, the TGI (NCI/ADR-RES ovarian) was greater than 100 µM, the TGI (RXF 393 renal) was greater than 90.7 µM and the TGI (SK-MEL-28 melanoma) was greater than 100 µM. The TGI (UACC-62 melanoma) was greater than 100 µM.
Oc1c(C(Nc2ccccn2)c2ccccc2)ccc2cccnc12 (stereo unspecified) showed a TGI (A498 renal) of 54.8 µM, a TGI (A549 NSCLC) greater than 100 µM and a TGI (ACHN renal) of 29.1 µM. The TGI (HT29 colon) was greater than 86.5 µM, the TGI (MALME-3M melanoma) was 22 µM and the TGI (MOLT-4 leukemia) was greater than 25.4 µM. For the same compound, the TGI (NCI/ADR-RES ovarian) was 8.73 µM, the TGI (RXF 393 renal) was 40.1 µM and the TGI (SK-MEL-28 melanoma) was greater than 100 µM. It also gave a TGI (UACC-62 melanoma) of 22.2 µM.
Compound COC(=O)CC[C@@H](C)[C@H]1CC[C@H]2[C@@H]3CC[C@@H]4C[C@H](O)CC[C@]4(C)[C@H]3CC[C@]12C has a TGI (A498 renal) of 35.1 µM, a TGI (A549 NSCLC) of 36.6 µM and a TGI (ACHN renal) of 39.8 µM. The TGI (HT29 colon) was 31.9 µM, the TGI (MALME-3M melanoma) was 34.8 µM and the TGI (MOLT-4 leukemia) was 40.7 µM. For the same compound, the TGI (NCI/ADR-RES ovarian) was 43.6 µM, the TGI (RXF 393 renal) was 33 µM and the TGI (SK-MEL-28 melanoma) was 35.6 µM. The TGI (UACC-62 melanoma) was 34.3 µM.
